Assay results published in patent publication US7371776B2, “Methods and compositions for treating cancer” (Mars, Incorporated, priority 2004, dated 2008).

Experiments:
Format in all cases: cell-based, human
[1] = system: AIN4 cells; assay: Mitochondrial membrane potential depolarization (ApoAlert, flow cytometry)
Procedure: (§1) Mitochondrial membrane potential was determined using ApoAlert™ Mitochondrial Membrane Sensor Kit (Clonetech Inc., Palo Alto, Calif.). The MDA MB-231, MCF-7, MDA MB-468, MDA MB-436, SKBR-3, MCF-10A, MCF-10A-c-Myc and AIN4 cells were grown, in appropriate media, to 60-70% confluence in 25 cm^2 dishes. The following day, the complete media was replaced with complete media containing (i) pentamer (100 μg/mL, or in some cases with 25 μg/mL), (ii) media with DMSO, or (iii) media only. Initially, cells were grown in the presence of pentamer for 1, 2, 3, 6, 12 and 24 hrs but only 1, 2 and 6 hrs treatments were selected for subsequent studies. All floating and adherent cells were combined, and then the cells were aliquoted into flow cytometry tubes. Approximately, 1×10^6 cells per tube were analyzed, according to the manufacturer's instructions. Samples were analyzed at the Lombardi Comprehensive Cancer Center Core Flow Cytometry Shared Resource Facility.

[2] = system: MCF-10A cells; assay: as above
Procedure: as §1

[3] = system: MCF-7 cells; assay: as above; settings: several attempts, different passages
Procedure: as §1

[4] = system: MDA MB-231 cells; assay: as above
Procedure: as §1

[5] = system: MDA MB-436 cells; assay: as above
Procedure: as §1

[6] = system: MDA MB-468 cells; assay: as above
Procedure: as §1

[7] = system: SKBR-3 cells; assay: as above
Procedure: as §1

[8] = system: PARP; assay: PARP cleavage in MDA MB-231 cells; settings: 48 hours treatment
Description: (§2) Rabbit polyclonal poly (ADP-ribose) polymerase (PARP) (H-250) was obtained from Santa Cruz Biotechnology Inc., (Santa Cruz, Calif.). α-Tubulin antibody was obtained from Neomarkers, Fremont, Calif. All antibodies used for proteomics analysis were obtained from Cell Signaling (Beverly, Mass.), Upstate Biotechnology (Lake Placid, N.Y.), Neomarkers (Fremont, Calif.) and Santa Cruz (Santa Cruz, Calif.) (Table 2). Referring to Table 2, Abs designated as “mouse” were monoclonal Abs, and Abs designated as “rabbit” were polyclonal Abs. The ECL detection reagent was obtained from Amersham (Arlington Heights, Ill.).
(§3) To determine whether depolarization of the mitochondrial membrane, induced by pentamer leads to apoptotic cellular death in human breast cancer cells lines, MDA MB-231 and MCF-7 cells were examined for PARP cleavage products. Since PARP is one of the downstream substrates of the caspase cascade, it is an excellent marker of apoptosis [Soldani, C. et al., Apoptosis, 7: 321-328, 2002].

[9] = system: PARP; assay: PARP cleavage in MCF-7 cells; settings: 48 hours treatment
Description: as §2, §3

[10] = system: pRb; assay: High resolution profiling (P-FILM) of pRb in MDA MB-231 cells; settings: 100 μg/mL, 48 and 72 hours
Procedure: Both p53 and pRb contain multiple phosphorylation sites, and evaluating each site separately provides a more accurate indication of each protein's potential function. Therefore, a high resolution functional profiling of the proteins was performed using P-FILM technology (20/20 Gene Systems, Inc.).
The same protein samples as those used for PDVF membrane blotting were used. Ten μg of each protein sample of MDA MB-231 cells, and in some cases MDA MB-468 and MCF-7 cells, treated with 100 μg /mL of pentamer or DMSO-treated controls, were separated by PAGE on 4-20% gradient gels (BioRad). Proteins were transferred on a stack of ten membranes, according to manufacturer's instructions (20/20 Gene Systems, Inc.). The membranes were probed with antibodies recognizing total and phosphorylated p53 (p53Ser6, Ser9, Ser15, Ser20, Ser37, Ser46 and Ser392) at 1:1000 dilution as recommended by the manufacturer (Cell Signaling). The secondary antibody used in all cases was anti-rabbit polyclonal 1:2000 (Amersham). Signals were visualized on BIOMAX MR film (Kodak). The profiling of pRb was done using anti-phospho pRb (Ser780, Ser 795 and Ser 807/811) and anti-pRb polyclonal antibody (Cell Signaling) at a 1:1000 dilution. The secondary antibody used in all cases was anti-rabbit at 1:2000 dilution (Amersham). Image analysis was performed with Kodak 1D image analysis software. […]

[11] = pentamer-treated, average of three experiments

Oc1cc(O)c2c(c1)O[C@H](c1ccc(O)c(O)c1)[C@H](O)[C@H]2c1c(O)cc(O)c2c1O[C@H](c1ccc(O)c(O)c1)[C@H](O)[C@H]2c1c(O)cc(O)c2c1O[C@H](c1ccc(O)c(O)c1)[C@H](O)[C@H]2c1c(O)cc(O)c2c1O[C@H](c1ccc(O)c(O)c1)[C@H](O)[C@H]2c1c(O)cc(O)c2c1O[C@H](c1ccc(O)c(O)c1)[C@H](O)C2 [pentamer, pentameric procyanidin]
MMP depolarization, Fold Increase over DMSO [1]: 3.2
MMP depolarization (%) [1, 11]: 20%
MMP depolarization, Fold Increase over DMSO [2]: 2
MMP depolarization (%) [2, 11]: 20%
depolarization of the mitochondrial membrane [3]: depolarization could not be demonstrated
MMP depolarization, Fold Increase over DMSO [4]: 14.5
depolarization of mitochondrial membrane, time course ([4]; 100 μg/mL, 1, 2 and 6 hours): time-dependent depolarization
depolarization of mitochondrial membrane, dose response ([4]; 25 and 100 μg/mL): dose-dependent response
MMP depolarization (%) [4, 11]: 58%
MMP depolarization, Fold Increase over DMSO [5]: 5.7
MMP depolarization (%) [5, 11]: 50%
MMP depolarization, Fold Increase over DMSO [6]: 5
MMP depolarization (%) [6, 11]: 60%
MMP depolarization, Fold Increase over DMSO [7]: 2.5
MMP depolarization (%) [7, 11]: 25%
main band of PARP (cleavage) [8]: uncleaved
cleaved PARP fragment [9]: no cleaved PARP fragment was detected
full-length PARP (116 kDa) [9]: decrease
phosphorylation of pRb on all tested residues (Ser780, Ser795 and Ser807/811) [10]: decrease
protein expression of endogenous pRb [10]: decrease
